Measurements reported in BindingDB's records for doi:10.1021/jm00079a012 (Smithkline Beecham Pharmaceuticals, 1992).

Columns and labels:
[1] = target: Delta(24)-sterol reductase DHCR24 (Rattus norvegicus); assay: Compound was tested for the inhibition of delta24-sterol reductase
[2] = target: Delta(24)-sterol reductase DHCR24 (Rattus norvegicus); assay: as above; remark: listed apart in the source

Structure (SMILES) | Ki [1] [nM] | Ki [2] [nM]
C[C@H](CCC(=N)N)C1CC[C@@]2(C)C3=C(CC[C@]12C)[C@@]1(C)CC[C@H](O)C(C)(C)C1CC3 (stereo partly drawn) | 7 | –
C[C@H](CCC(N)=[N+](C)C)C1CC[C@@]2(C)C3=C(CC[C@]12C)[C@@]1(C)CC[C@H](O)C(C)(C)C1CC3 (stereo partly drawn) | – | 12
CC(C)[S+](C)CC[C@@H](C)C1CCC2C3CC=C4C[C@@H](O)CC[C@]4(C)C3CC[C@@]21C (stereo partly drawn) | 4 | –
